Values quoted from earlier work in US6503927B1, “Amorphous paroxetine composition” (Pentech Pharmaceuticals, Inc., priority 1999, dated 2003).
Where a name gives a salt, the structure may show the parent alone.

Details: reported in U.S. Pat. No. 4,721,723 (Barnes et al.) and U.S. Pat. No. 5,672,612 (Ronsen et al.)

For Fc1ccc([C@@H]2CCNC[C@H]2COc2ccc3c(c2)OCO3)cc1 [amorphous, paroxetine hydrochloride, paroxetine hydrochloride], the “hygroscopicity of the solid” value is given as “undesirably hygroscopic”.
